One assay addresses T1, DENV protease (Dengue virus type 2, UniProt P29990).
T1 construct: The virus-encoded dengue protease comprises the amino-terminal 180 amino acids of NS3 (NS3pro) of the polyprotein
The experiment in a line: biochemical. Conditions: read-out: inhibition of DENV. As to the method:
(§1) Dilutions were made starting from 10 mM stock solutions in DMSO and final concentrations were measured in triplicates. The inhibitors were preincubated for 15 min with DENV protease (100 nM) in the assay buffer (50 mM Tris-HCl pH 9.0, ethylene glycol (10% v/v), and 0.0016% Brij 58). The enzymatic reaction was initiated by the addition of the FRET substrate (final concentration 50 μM) to obtain a final assay volume of 100 μL per well. The enzymatic activity was monitored for 15 min and determined as a slope of relative fluorescence units per second (RFU/s) for each concentration. The mean of the triplicates were plotted against the corresponding concentration in CDDVault to determine the IC50-values. Analogous procedures were used to determine the inhibitory potency on WNV (Kühl et al., J. Med. Chem. 2020, 63 (15): 8179-8197) and ZIKA protease (Nitsche et al., ACS Med. Chem. Lett. 2019 Feb. 14; 10 (2): 168-174). For selectivity screening of active candidates, similar biochemical assays with human serine proteases trypsin (Weigel et al., J. Med. Chem. 2015, 58 (19), 7719-7733.) and/or thrombin (Nitsche et al., J. Med. Chem. 2013, 56 (21), 8389-8403) were used.

Assay [1] deals with T2, WNV protease (West Nile virus, UniProt P06935).
T2 construct: a trypsin-like serine protease domain in the N-terminal region of the flaviviral NS3 proteins
T2 sequence (P06935 1424-1463): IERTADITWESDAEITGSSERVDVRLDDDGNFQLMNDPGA
T2 sequence (P06935 1502-1679): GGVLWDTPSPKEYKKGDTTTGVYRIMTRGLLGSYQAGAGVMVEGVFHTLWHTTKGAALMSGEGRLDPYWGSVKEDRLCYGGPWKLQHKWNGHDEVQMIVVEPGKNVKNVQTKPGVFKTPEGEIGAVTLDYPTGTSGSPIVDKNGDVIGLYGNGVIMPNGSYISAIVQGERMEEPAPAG
Briefly: WNV protease assay (analogous procedure). The class given is biochemical. Here is the method:
as §1, with “By catalytic activity of the protease, the cleaved substrate results in increased fluorescence that can be monitored using a BMG Labtech Fluostar OPTIMA Microtiter fluorescence plate reader (excitation wavelength of 320 nm and a monitored emission wavelength of 405 nm). Dilutions” for “Dilutions”

For a further assay, the target named is T3, ZIKA protease (Zika virus, UniProt Q32ZE1).
T3 construct: a trypsin-like serine protease domain in the N-terminal region of the flaviviral NS3 proteins
T3 sequence (Q32ZE1 1499-1676): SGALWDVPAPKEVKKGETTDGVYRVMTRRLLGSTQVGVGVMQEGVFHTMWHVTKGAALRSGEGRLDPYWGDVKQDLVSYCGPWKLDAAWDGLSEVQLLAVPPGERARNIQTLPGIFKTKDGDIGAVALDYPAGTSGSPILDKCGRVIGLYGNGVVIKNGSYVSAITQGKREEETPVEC
T3 sequence (Q32ZE1 1421-1460): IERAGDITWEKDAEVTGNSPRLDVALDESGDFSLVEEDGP
The experiment in a line: biochemical. Conditions: for inhibition at 1 µM / inhibition at 50 µM: read-out: inhibition of ZIKV. Here is the method:
as §1, with “By catalytic activity of the protease, the cleaved substrate results in increased fluorescence that can be monitored using a BMG Labtech Fluostar OPTIMA Microtiter fluorescence plate reader (excitation wavelength of 320 nm and a monitored emission wavelength of 405 nm). Dilutions” for “Dilutions”

The target in assay [2] is T2, WNV protease. Briefly: WNV protease assay (analogous procedure). The class given is biochemical. Conditions: read-out: IC50 for WNNV.
Another assay deals with human Thrombin (Homo sapiens, UniProt P00734). The experiment in a line: Selectivity screening, human serine protease thrombin. Conditions: at 5 μM; read-out: inhibition of human Thrombin. The class given is biochemical. Here is the method: as §1, with “By catalytic activity of the protease, the cleaved substrate results in increased fluorescence that can be monitored using a BMG Labtech Fluostar OPTIMA Microtiter fluorescence plate reader (excitation wavelength of 320 nm and a monitored emission wavelength of 405 nm). Dilutions” for “Dilutions”

pIC50: −log10 of the molar value. Like-named read-outs stand apart in the source and are kept apart here. Where a SMILES comes first, the peptide text is derived from it. [ ]: non-standard residue; d: D form. The star is where a group is joined. Palmitoyl = CCCCCCCCCCCCCCCC(=O)* Where only a bound is given, the exact number is not on record here.

These results are taken from patent US20250059231A1, “Protease inhibitors” (priority 2021, published 2025).

T1 sequence (P29990 1398-1437): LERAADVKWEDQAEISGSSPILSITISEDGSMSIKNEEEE
T1 sequence (P29990 1476-1653): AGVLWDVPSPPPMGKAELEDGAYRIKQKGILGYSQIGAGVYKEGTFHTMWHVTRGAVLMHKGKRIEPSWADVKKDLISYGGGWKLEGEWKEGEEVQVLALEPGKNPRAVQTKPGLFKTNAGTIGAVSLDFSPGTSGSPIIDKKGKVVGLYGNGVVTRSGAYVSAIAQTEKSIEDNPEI

Turning to `CCCCCCCCCCCCCCCC(=O)N[C@@H](CCCCN)C(=O)N[C@@H](C)C(=O)N[C@@H](CCCCN)C(=O)N(C)OC` [compound 185], the inhibition at 50 µM at DENV protease (at 50 μM) and against WNV protease [1] was no less than 25% throughout.
`CCCCCCCCCCCCCCCC(=O)N[C@@H](C)C(=O)N[C@@H](CCCNC(=N)N)C(=O)N[C@@H](CCC(N)=O)C(=O)N[C@@H](CCCCN)B(O)O` [compound 39]: the inhibition at 1 µM was no less than 20% on DENV protease and no less than 10% at ZIKA protease. Also, the inhibition at 50 µM is no less than 25% on DENV protease (at 50 μM) and no less than 65% on ZIKA protease. Also, the pIC50 is no less than 4.60 on ZIKA protease and no less than 4.40 at WNV protease [2].
Regarding `CCCCCCCCCCCCCCCC(=O)N[C@@H](CCCCN)C(=O)N[C@@H](C)C(=O)N[C@@H](C)C(=O)N[C@@H](CCCCN)C(O)O` [compound 183], the inhibition at 50 µM on DENV protease (at 50 μM) and against WNV protease [1] was no less than 25% throughout. At WNV protease [2], the pIC50 is no less than 4.40.
`CCCCCCCCCCCCCCCC(=O)N[C@@H](CCCCN)C(=O)N[C@@H](C)C(=O)N[C@H](C=O)CCCCN` [compound 186] (Palmitoyl-Lys-Ala-Lys-aldehyde): the inhibition at 50 µM at DENV protease (at 50 μM) and against WNV protease [1] was no less than 25% in each case. Besides, at WNV protease [1] (at 1 μM, read-out: inhibition of WNNV), the inhibition at 1 µM was no less than 10%. Also, the inhibition at 5 µM on human Thrombin was less than 5%. For the same compound, the pIC50 at WNV protease [2] was no less than 4.40.
`CCCCCCCCCCCCCCCC(=O)N[C@@H](CCCCN)C(=O)N[C@@H](C)C(=O)N[C@@H](CCCCN)B(O)O` [compound 182]: the inhibition at 50 µM on DENV protease (at 50 μM) and against WNV protease [1] was no less than 25% in each case. Also, on WNV protease [2], the pIC50 was no less than 4.40.
As for `CCCCCCCCCCCCCCCC(=O)N[C@@H](CCCCN)C(=O)N1CCC[C@H]1C(=O)N[C@@H](C)C(=O)N[C@@H](CCCCN)C(N)=O` [compound 156] (Palmitoyl-KPAK-NH2), at DENV protease (at 50 μM), the inhibition at 50 µM was no less than 25%. In addition, on WNV protease [2], the pIC50 is no less than 4.40.
In the case of `CCCCCCCCCCCCCCCC(=O)N[C@@H](CCCCN)C(=O)N[C@@H](C)C(=O)N[C@@H](CCCCN)C(=O)N(C)C` [compound 184] (Palmitoyl-Lys-Ala-Lys-NMe2), the inhibition at 50 µM on DENV protease (at 50 μM) and against WNV protease [1] was no less than 25% throughout.
`CCCCCCCCCCCCCCCC(=O)N[C@H](CCCCN)C(=O)N[C@@H](C)C(=O)N[C@@H](C)C(=O)N[C@@H](Cc1ccccc1)C(N)=O` [compound 193] (Palmitoyl-[dK]AAF-NH2): the inhibition at 50 µM on DENV protease (at 50 μM) and against WNV protease [1] was no less than 25% in each case. Further, on WNV protease [2], the pIC50 was no less than 4.40.
For the compound `CCCCCCCCCCCCCCCC(=O)N[C@@H](CCCCN)C(=O)N[C@@H](C)C(=O)N[C@@H](Cc1ccccc1)C(N)=O` [compound 192] (Palmitoyl-Lys-Ala-Phe-NH2), the inhibition at 50 µM on DENV protease (at 50 μM) and at WNV protease [1] was no less than 25% throughout.
On to `CC(=O)N[C@@H](C)C(=O)N[C@@H](CCCNC(=N)N)C(=O)N[C@@H](CCC(N)=O)C(=O)N[C@@H](CCCCN)B(O)O` [compound 48], for which the inhibition at 1 µM on DENV protease was no less than 20%; at ZIKA protease, no less than 10%. The values for the inhibition at 50 µM at DENV protease (at 50 μM), against WNV protease [1] and on ZIKA protease were no less than 25%, no less than 25% and no less than 65%, respectively. Moreover, the figures for the pIC50 on ZIKA protease and at WNV protease [2] were no less than 4.60 and no less than 4.40, respectively.
As to `CCCCCCCCCCCCCCCC(=O)N[C@@H](CCCNC(=N)N)C(=O)N[C@@H](CCC(N)=O)C(=O)N[C@@H](CCCCN)B(O)O` [compound 41], on DENV protease, the inhibition at 1 µM was no less than 20%. For the same compound, at DENV protease (at 50 μM), the inhibition at 50 µM was no less than 25%. Further, the pIC50 on WNV protease [2] was no less than 4.40.
`CCCCCCCCCCCCCCCC(=O)N[C@@H](Cc1c[nH]c2ccccc12)C(=O)N[C@@H](C)C(=O)N[C@@H](C)C(=O)N[C@@H](Cc1c[nH]c2ccccc12)C(N)=O` [compound 191] (Palmitoyl-WAAW-NH2): the inhibition at 50 µM at WNV protease [1] was no less than 25%.
Consider `C[C@H](NC(=O)[C@H](CCCCN)NC(=O)c1ccc(-c2ccccc2)cc1)C(=O)N[C@@H](CCCCN)CC(=O)NCc1ccc(C(F)(F)F)cc1` [compound 78], for which, at DENV protease, the inhibition at 50 µM is no less than 25%.

In general, inhibition refers to the drop in the measured response relative to a control, in per cent. As usually defined, the pIC50 is the negative decadic logarithm of the IC50, by convention in mol/L.
